Measurements: patent US20120009239A1, “Prebiotic Formulations for use with Probiotics to Increase Probiotic Growth Rate and Activity” (MASTER SUPPLEMENTS, INC., priority 2010, published 2012)

Columns and labels:
[1] = tested on: Lactobacillus rhamnosus—Lr-32 (LR-44); assay: Growth and lactic acid producing activity of Lactobacillus rhamnosus Lr-32 in MRS broth; format: cell-based; settings: for Lactic Acid % / pH: additive at 0.1% in MRS; for NTU (Turbidity): additive at 0.1% in MRS (polysorbate 80 control 1.0 g per liter)
From the text: (§1) The prebiotics of this invention can be in the same capsule or formulation as the probiotics, or in a separate dosage form. The prebiotics should be in a separate dosage form if they are naturally occurring, as opposed to adsorbed. The prebiotics of this invention may be taken with carbohydrate or fiber to increase their effectiveness. Prebiotic formulations are often probiotic strain dependent. Some Lactobacillus strains, for example, respond best to a form of lecithin derived from sunflowers (Sunflower Lecithin) while others show no preference to lecithin type and respond equally well to soy lecithin. Other strains show a synergistic response when lecithin is used together with oleic acid. […] Each flask was tempered to 37° C. and aseptically inoculated with 0.14 gm of the individual probiotic strains (in Examples 5 to 10 below) to be tested. At specified time intervals, a 30 ml sample from each flask was aseptically transferred into a HACH […] Turbidimeter sample cell. The turbidity of each sample was read and the results were reported in NTU's. The same 30 ml sample used for the turbidity reading was transferred into a 250 ml glass beaker, and the pH was recorded. The sample was titrated using 0.1N NaOH to an endpoint of pH 6.8, and the quantity of NaOH used was recorded. The % Lactic Acid was calculated using the following formula: % Lactic Acid=((mls of 0.1N NaOH)×(0.1N)×(90 gm/mole)×(1 L/1000 ml))×100 mls of sample % Lactic Acid=(mls of 0.1N NaOH)×(0.9) (Results reported at 12 hours and 23 hours like: 12/23 in Table IV below)

[2] = tested on: L. acidophilus NCFM (LA-1); assay: Growth (turbidity) and lactic acid producing activity of L. acidophilus NCFM in MRS broth with polysorbate 80 or substitute; format: cell-based, Lactobacillus acidophilus; settings: for Lactic Acid % / pH: additive at 0.1% in MRS; for NTU (Turbidity): additive at 0.1% in MRS (polysorbate 80 control 1.0 g per liter)
Experimental: The prebiotics of this invention can be in the same capsule or formulation as the probiotics, or in a separate dosage form. The prebiotics should be in a separate dosage form if they are naturally occurring, as opposed to adsorbed. […] Prebiotic formulations are often probiotic strain dependent. […] At specified time intervals, a 30 ml sample from each flask was aseptically transferred into a HACH […] Turbidimeter sample cell. The turbidity of each sample was read and the results were reported in NTU's. The same 30 ml sample used for the turbidity reading was transferred into a 250 ml glass beaker, and the pH was recorded. The sample was titrated using 0.1N NaOH to an endpoint of pH 6.8, and the quantity of NaOH used was recorded. The % Lactic Acid was calculated using the following formula: % Lactic Acid=((mls of 0.1N NaOH)×(0.1N)×(90 gm/mole)×(1 L/1000 ml))×100 mls of sample % Lactic Acid=(mls of 0.1N NaOH)×(0.9) (Results reported at 12 hours and 23 hours like: 12/23 in Table I below)

[3] = tested on: Lactobacillus paracasei Lpc-37 (F-19); assay: Growth and lactic acid producing activity of Lactobacillus paracasei Lpc-37 in MRS broth; format: cell-based; settings: for Lactic Acid % / pH: additive at 0.1% in MRS; for NTU (Turbidity): additive at 0.1% in MRS (polysorbate 80 control 1.0 g per liter)
From the text: as §1, with “III” for “IV”

[4] = tested on: THERALAC® Lot # 32310A, a commercial probiotic product; assay: Growth of the commercial probiotic […] in MRS broth; format: cell-based; settings: for Lactic Acid % / pH: additive at 0.1% in MRS; for NTU (Turbidity): additive at 0.1% in MRS (polysorbate 80 control 1.0 g per liter), THERALAC inoculated at 0.1%
Experimental: MRS broth was prepared with (for controls) and without (for tests) polysorbate 80 and filled into 1 liter screw cap flasks at 500 ml each and autoclaved at 121° C. for 30 minutes. Various lecithin and/or oleic acid additives, or nothing (negative control), was added to the tests flasks prior to autoclaving. The flasks were then tempered to 37° C. in a water bath and inoculated at 0.1% with […]® Lot # 32310A, a commercial probiotic product (Master Supplements, Inc., Victoria, Minn.). Capsules of […]® were opened and the contents mixed aseptically to serve as the inoculum source. At an inoculation rate of 0.1%, approximately 80 million CFU was added per ml of MRS media. […]® contains (formulation strength) the following probiotic strains at the approximate CFU values listed per gram: Lactobacillus acidophilus NCFM (LA-1): 30 billion CFU Bifidobacterium lactis B1-04 (BL-34): 30 billion CFU Lactobacillus paracasei Lpc-37 (F-19): 14 billion CFU Lactobacillus rhamnosus Lr-32 (LR-44): 6 billion CFU Bifidobacterium lactis Bi-07: 8 billion CFU Turbidity, pH and titrations (made with 0.1 N NaOH and reported as % lactic acid) were made at various times up to 23 hours. The results are presented below in Table VI for the 12 and 23-hour analyses.

[5] = tested on: Lactobacillus salivarius—Ls-33 (LS-30); assay: Growth and lactic acid producing activity of Lactobacillus salivarius Ls-33 in MRS broth; format: cell-based; settings: for Lactic Acid % / pH: additive at 0.1% in MRS; for NTU (Turbidity): additive at 0.1% in MRS (polysorbate 80 control 1.0 g per liter)
From the text: as §1, with “V” for “IV”

[6] = tested on: Bifidobacterium lactic Bl-04 (BL-34); assay: Growth and lactic acid producing activity of Bifidobacterium lactis Bl-04 in MRS broth; format: cell-based; settings: for Lactic Acid % / pH: additive at 0.1% in MRS; for NTU (Turbidity): additive at 0.1% in MRS (polysorbate 80 control 1.0 g per liter)
From the text: as §1, with “II” for “IV”

[7] = at the concentrations studied (0.1% + 0.1%)

## CCCCCCCC/C=C\CCCCCCCC(=O)O [Oleic Acid]
[1]; 0.1% inclusion rate
  Replacement of polysorbate 80 (growth and activity), conclusion in words: not as good a replacement for polysorbate 80 as sunflower lecithin
[1]; 12 hours
  Lactic Acid %: 0.072%
  pH: 6.2
[1]; 23 hours
  pH: 4.1
[1]; [7]
  Synergy with sunflower lecithin: not synergistic
[2]; 0.1% inclusion rate
  Replacement of polysorbate 80 (growth and activity), conclusion in words: somewhat effective
[3]; 0.1% inclusion rate
  Replacement of polysorbate 80 (growth and activity), conclusion in words: not as effective a replacement for polysorbate 80 as sunflower lecithin
[3]; [7]
  Synergy with sunflower lecithin: does not appear to be synergistic
[4]; 0.1% inclusion rate
  Replacement of polysorbate 80 (growth and activity), conclusion in words: acceptable replacement value for polysorbate 80
[5]; 0.1% inclusion rate
  Replacement of polysorbate 80 (growth and activity), conclusion in words: not as good a replacement
[5]; 12 hours
  Lactic Acid %: 0.073%
  pH: 4.4
[5]; 23 hours
  pH: 3.8

## Polysorbate 80
[1]; 12 hours
  Lactic Acid %: 1.12%
  pH: 4.0
  NTU (Turbidity): 2804 NTU
[1]; 23 hours
  Lactic Acid %: 1.67%
  pH: 3.7
  NTU (Turbidity): 3776 NTU
[2]; 12 hours
  Lactic Acid %: 1.09%
  pH: 4.2
  NTU (Turbidity): 1855 NTU
[2]; 23 hours
  Lactic Acid %: 1.27%
  pH: 4.1
  NTU (Turbidity): 2038 NTU
[3]; 12 hours
  Lactic Acid %: 0.99%
  pH: 4.2
  NTU (Turbidity): 1664 NTU
[3]; 23 hours
  Lactic Acid %: 1.39%
  pH: 3.9
  NTU (Turbidity): 2824 NTU
[6]; 12 hours
  Lactic Acid %: 0.57%
  pH: 4.8
  NTU (Turbidity): 922 NTU
[6]; 23 hours
  Lactic Acid %: 0.84%
  pH: 4.5
  NTU (Turbidity): 1434 NTU
[4]; 12 hours
  Lactic Acid %: 1.42%
  pH: 3.9
  NTU (Turbidity): 3311 NTU
[4]; 23 hours
  Lactic Acid %: 1.84%
  pH: 3.7
  NTU (Turbidity): 3694 NTU
[5]; 12 hours
  Lactic Acid %: 1.42%
  pH: 3.8
  NTU (Turbidity): 3426 NTU
[5]; 23 hours
  Lactic Acid %: 1.68%
  pH: 3.7
  NTU (Turbidity): 3931 NTU
